In one assay the target is DNA polymerase (Bos taurus, UniProt A0AAA9TD94). Kind of assay: DNA Polymerase Assay. Particulars: pH 7.5; 37 °C. As for the experimental part: (§1) For the DNA polymerase reaction, the dehydroaltenusin derivative was dissolved in dimethyl sulfoxide (DMSO) at various concentrations and sonicated for 30 s. Four microlitres of each sonicated sample were mixed with 16 uL of enzyme (final 0.05 units) in reaction buffer, and kept at 0 deg C for 10 min. These inhibitor-enzyme mixtures were added to 16 uL of each enzyme standard reaction mixture containing DNA template-primer and nucleotide, and incubated at 37 deg C for 60 min. Activity without the inhibitor was considered 100%, and the remaining activity at each concentration of the inhibitor was determined relative to this value. One unit of pol activity was defined as the amount of enzyme that catalyzed the incorporation of 1 nmol of dNTP (i.e., dTTP) into synthetic DNA template-primer in 60 min at 37 deg C under the normal reaction conditions.

The next assay concerns the target DNA polymerase beta (Rattus norvegicus, UniProt P06766). Kind of assay: DNA Polymerase Assay. The note with it: pH 7.5; 37 °C. Here is the method:
as §1

From BindingDB's records for doi:10.1016/j.bmc.2009.08.051 (Kyoto Prefectural University, 2009) come the findings set out here.

As for `COc1cc(O)c2c(c1)C1=CC(=O)C(=O)CC1(C)OC2=O` (stereo not given) [dehydroaltenusin], the IC50 (usually the concentration that gives 50% inhibition) was 0.68 µM against DNA polymerase and 64 µM against DNA polymerase beta.

`CC12CC(=O)C(=O)C=C1c1cc(O)cc(O)c1C(=O)O2` (stereo not given) [desmethyldehydroaltenusin, 2]: the results for the IC50 against DNA polymerase and at DNA polymerase beta were 0.89 µM and 126 µM, respectively.

For `CCCCCCCCCCCCOc1cc(O)c2c(c1)C1=CC(=O)C(=O)CC1(C)OC2=O` (stereo not given) [dehydroaltenusin derivative, 16], the IC50 on DNA polymerase was determined as 0.06 µM; against DNA polymerase beta, 11 µM.

Consider `COc1cc(O)c2c(=O)oc3cc(OCc4ccccc4)c(OCc4ccccc4)cc3c2c1` [dehydroaltenusin derivative, 25], for which the IC50 against DNA polymerase and at DNA polymerase beta was over 200 µM each time.

Regarding `COc1cc(O)c2c(c1)C1=CC(=O)C=CC1(C)OC2=O` (stereo not given) [dehydroaltenusin derivative, 31], the IC50 against DNA polymerase and against DNA polymerase beta was over 200 µM in each case.

As to `CCCOc1cc(O)c2c(c1)C1=CC(=O)C(=O)CC1(C)OC2=O` (stereo not given) [dehydroaltenusin derivative, 14], the figures for the 50% inhibitory concentration (IC50) against DNA polymerase and on DNA polymerase beta were 0.18 µM and 35 µM, respectively.

`CC12C=CC(=O)C=C1c1cccc(O)c1C(=O)O2` (stereo not given) [dehydroaltenusin derivative, 32]: the IC50 against DNA polymerase and against DNA polymerase beta was over 200 µM in each case.

For the compound `CCCCCCOc1cc(O)c2c(c1)C1=CC(=O)C(=O)CC1(C)OC2=O` (stereo not given) [dehydroaltenusin derivative, 15], the figures for the IC50 against DNA polymerase and against DNA polymerase beta were 0.09 µM and 24 µM, respectively.

Consider `COc1cc(O)c2c(=O)oc3cc(O)c(O)cc3c2c1` [dehydroaltenusin derivative, 26], for which the IC50 on DNA polymerase and against DNA polymerase beta was over 200 µM each time.

In the case of `CC12CC(=O)C(=O)C=C1c1cccc(O)c1C(=O)O2` (stereo not given) [dehydroaltenusin derivative, 20], the IC50 against DNA polymerase amounted to 0.24 µM; at DNA polymerase beta, 89 µM.
